The target in series [1] is T1, human ghrelin receptor (Homo sapiens, UniProt Q92847).
T1 construct: expressed in transfected cells; host or cells: HEK293
Kind of series: Ghrelin receptor agonistic activity induced Ca2+ influx in HEK293 cells stably expressing human ghrelin receptor. The format is cell-based. As to conditions: 11-point dose-response. On the procedure:
Measurement of the ghrelin receptor agonistic activity induced Ca^2+ influx in HEK293 cells stably expressing human ghrelin receptor
HEK293 cells stably expressing human ghrelin receptor are maintained in Dulbecco's modified Eagle medium (high glucose) supplemented with 10% fetal bovine serum, 100 units/mL penicillin, 100 microg/mL streptomycin and 500 microg/mL G418 at 37° C. in a humidified incubator with 5% CO2 and grown to 60-80% confluence. The day before the assay, the cells are seeded on poly-D-lysine coated 384-well plates (BD FALCON) at a density of 10,000 cells per well and incubated overnight in incubator.
On the day of the assay, the cells are washed at three times with assay buffer (Hanks' balanced salt solution with 20 mM HEPES, pH7.4), and are incubated for 1 hour at room temperature to load 0.5 microM Fluo-4 AM reagent (Invitrogen).
After removing Fluo-4, and washing with assay buffer, the cells are added with various concentrations of the compounds. The changes in intracellular calcium concentration are monitored with the fluorescence imaging plate reader, FDSS6000 (Hamamatsu Photonics).
The EC50 values for compounds of the present invention are determined from 11-point dose-response studies. Curves are generated using the average of duplicate wells for each data point. Finally, the EC50 values are calculated using the best-fit dose curve determined by XLfit (ID Business Solutions Ltd).

The nature of series [2]: Half-life in human liver microsomes (HLM), HLM CLint. As to conditions: for CLint scaled at 1 microM: human, human liver microsomes (XTreme 200), 1 microM test compound, 0.61 mg protein/mL HLM, pH 7.4, 37° C., read-out: HLM CLint (clearance in human liver microsome); for Ratio of HLM CLint over comparison 1: ratio between comparison compound 1 and the example. The format is in vitro ADME. On the procedure: Half-Life in Human Liver Microsomes (HLM)
Test compounds (1 microM) are incubated with 1 mM MgCl2 and 0.61 mg protein/mL HLM (XTreme 200) in 100 mM phosphate buffer (pH 7.4) at 37° C. on the 96-deep well plate. An aliquot of samples is collected at […], where 0 […] the time when NADPH is added into the reaction mixture. Collected aliquots are extracted with acetonitrile solution containing an internal standard. The precipitated protein is spun down in centrifuge (2000 rpm, […]). The compound concentration in supernatant is measured by LC/MS/MS system.
The half-life value is obtained by plotting the natural logarithm of the peak area ratio of compound/internal standard versus time. The slope of the line of the best fit through the points yields the elimination rate constant (kel). This is converted to a half-life value using a following equation: Half-life=1n2/kel.

T1 sequence (Q92847 whole entry): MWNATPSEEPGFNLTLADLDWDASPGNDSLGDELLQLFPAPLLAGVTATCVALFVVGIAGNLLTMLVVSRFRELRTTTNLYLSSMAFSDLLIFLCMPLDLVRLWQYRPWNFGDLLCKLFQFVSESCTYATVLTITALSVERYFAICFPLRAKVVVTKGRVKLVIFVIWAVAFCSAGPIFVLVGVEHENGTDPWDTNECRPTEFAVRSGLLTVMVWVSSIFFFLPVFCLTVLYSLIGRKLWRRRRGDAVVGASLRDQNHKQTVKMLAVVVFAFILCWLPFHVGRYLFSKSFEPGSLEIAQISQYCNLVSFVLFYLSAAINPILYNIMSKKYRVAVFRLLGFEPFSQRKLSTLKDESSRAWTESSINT

As to `CN1N=C2CCN(C(=O)[C@@H](CCCc3cccc(C(F)F)n3)NC(=O)C(C)(C)N)C[C@@]2(Cc2ccccc2)C1=O` [Example 13, 2-amino-N—((R)-1-((R)-3a-benzyl-2-methyl-3-oxo-3a,4,6,7-tetrahydro-2H-pyrazolo[4,3-c]pyridin-5(3H)-yl)-5-(6-(difluoromethyl)pyridin-2-yl)-1-oxopentan-2-yl)-2-methylpropanamide], the EC50 (in general, the concentration needed to bring the measured effect to its halfway point) in series [1] is less than 20 nM. Further, in series [2], the CLint scaled at 1 microM was 36 mL/min/kg and the “Ratio of HLM CLint over comparison 1” value is reported as 3.6.

On to `CN1N=C2CCN(C(=O)[C@@H](CCCc3ccccn3)NC(=O)C(C)(C)N)C[C@@]2(Cc2ccccc2)C1=O` [Example 9, 2-amino-N—((R)-1-((R)-3a-benzyl-2-methyl-3-oxo-3a,4,6,7-tetrahydro-2H-pyrazolo[4,3-c]pyridin-5(3H)-yl)-1-oxo-5-(pyridin-2-yl)pentan-2-yl)-2-methylpropanamide], for which the EC50 in series [1] is less than 20 nM. For the same compound, in series [2], the CLint scaled at 1 microM turned out to be 19.7 mL/min/kg and the “Ratio of HLM CLint over comparison 1” value is listed as 6.6.

The compound `CN1N=C2CCN(C(=O)[C@@H](CCCc3ccccc3CO)NC(=O)C(C)(C)N)C[C@@]2(Cc2ccccc2)C1=O` [Example 8, 2-amino-N—((R)-1-((R)-3a-benzyl-2-methyl-3-oxo-3a,4,6,7-tetrahydro-2H-pyrazolo[4,3-c]pyridin-5(3H)-yl)-5-(2-(hydroxymethyl)phenyl)-1-oxopentan-2-yl)-2-methylpropanamide] showed an EC50 in series [1] of less than 20 nM. In addition, in series [2], the CLint scaled at 1 microM turned out to be 48.5 mL/min/kg and the “Ratio of HLM CLint over comparison 1” value is 2.7.

In turn, `CN1N=C2CCN(C(=O)[C@@H](CCc3ccc(CO)cc3F)NC(=O)C(C)(C)N)C[C@@]2(Cc2ccccc2)C1=O` [Example 4, 2-amino-N—((R)-1-((R)-3a-benzyl-2-methyl-3-oxo-3a,4,6,7-tetrahydro-2H-pyrazolo[4,3-c]pyridin-5(3H)-yl)-4-(2-fluoro-4-(hydroxymethyl)phenyl)-1-oxobutan-2-yl)-2-methylpropanamide] registered an EC50 in series [1] of less than 20 nM. Moreover, in series [2], the CLint scaled at 1 microM was 21.7 mL/min/kg and the “Ratio of HLM CLint over comparison 1” value was 6.0.

Take `CC(C)(N)C(=O)N[C@H](CCc1ccc(F)cc1CO)C(=O)N1CCC2=NN(CC(F)(F)F)C(=O)[C@]2(Cc2ccccn2)C1` [Example 17, 2-amino-N—((R)-4-(4-fluoro-2-(hydroxymethyl)phenyl)-1-oxo-1-((R)-3-oxo-3a-(pyridin-2-ylmethyl)-2-(2,2,2-trifluoroethyl)-3a,4,6,7-tetrahydro-2H-pyrazolo[4,3-c]pyridin-5(3H)-yl)butan-2-yl)-2-methylpropanamide]: the EC50 in series [1] was less than 20 nM. Moreover, in series [2], the CLint scaled at 1 microM was 56.7 mL/min/kg and the “Ratio of HLM CLint over comparison 1” value stood at 2.3.

As for `CN1N=C2CCN(C(=O)[C@@H](CCc3cc(CO)ccc3F)NC(=O)C(C)(C)N)C[C@@]2(Cc2ccccc2)C1=O` [Example 5, 2-amino-N—((R)-1-((R)-3a-benzyl-2-methyl-3-oxo-3a,4,6,7-tetrahydro-2H-pyrazolo[4,3-c]pyridin-5(3H)-yl)-4-(2-fluoro-5-(hydroxymethyl)phenyl)-1-oxobutan-2-yl)-2-methylpropanamide], the EC50 in series [1] was less than 20 nM. For the same compound, in series [2], the CLint scaled at 1 microM came to 44.6 mL/min/kg and the “Ratio of HLM CLint over comparison 1” value is 2.9.

`CN1N=C2CCN(C(=O)[C@@H](CCCc3cccc(CO)c3)NC(=O)C(C)(C)N)C[C@@]2(Cc2ccccc2)C1=O` [Example 7, 2-amino-N—((R)-1-((R)-3a-benzyl-2-methyl-3-oxo-3a,4,6,7-tetrahydro-2H-pyrazolo[4,3-c]pyridin-5(3H)-yl)-5-(3-(hydroxymethyl)phenyl)-1-oxopentan-2-yl)-2-methylpropanamide]: the EC50 in series [1] was less than 20 nM. In addition, in series [2], the CLint scaled at 1 microM turned out to be 53.5 mL/min/kg and the “Ratio of HLM CLint over comparison 1” value came out at 2.4.

For the compound `CN1N=C2CCN(C(=O)[C@@H](CCCc3cccc(C(F)(F)F)n3)NC(=O)C(C)(C)N)C[C@@]2(Cc2ccccc2)C1=O` [Example 10, 2-amino-N—((R)-1-((R)-3a-benzyl-2-methyl-3-oxo-3a,4,6,7-tetrahydro-2H-pyrazolo[4,3-c]pyridin-5(3H)-yl)-1-oxo-5-(6-(trifluoromethyl)pyridin-2-yl)pentan-2-yl)-2-methylpropanamide], in series [1], the EC50 was less than 20 nM. Also, in series [2], the CLint scaled at 1 microM was 44.2 mL/min/kg and the “Ratio of HLM CLint over comparison 1” value was 2.9.

As to `CN1N=C2CCN(C(=O)[C@@H](CCc3ccc(CO)cc3Cl)NC(=O)C(C)(C)N)C[C@@]2(Cc2ccccc2)C1=O` [Example 3, 2-amino-N—((R)-1-((R)-3a-benzyl-2-methyl-3-oxo-3a,4,6,7-tetrahydro-2H-pyrazolo[4,3-c]pyridin-5(3H)-yl)-4-(2-chloro-4-(hydroxymethyl)phenyl)-1-oxobutan-2-yl)-2-methylpropanamide], the EC50 in series [1] is less than 20 nM. Besides, in series [2], the CLint scaled at 1 microM worked out at 43.5 mL/min/kg and the “Ratio of HLM CLint over comparison 1” value worked out at 3.0.

With `CN1N=C2CCN(C(=O)[C@@H](CCc3ccccc3)NC(=O)C(C)(C)N)C[C@@]2(Cc2ccccc2)C1=O` [Example 2, 2-amino-N—((R)-1-((R)-3a-benzyl-2-methyl-3-oxo-3a,4,6,7-tetrahydro-2H-pyrazolo[4,3-c]pyridin-5(3H)-yl)-1-oxo-4-phenylbutan-2-yl)-2-methylpropanamide], the EC50 in series [1] is less than 20 nM. Besides, in series [2], the CLint scaled at 1 microM was found to be 54.5 mL/min/kg and the “Ratio of HLM CLint over comparison 1” value was 2.4.

Compound `CC(C)(N)C(=O)N[C@H](CCc1ccccc1)C(=O)N1CCC2=NN(CC(F)(F)F)C(=O)[C@]2(Cc2ccccn2)C1` [Example 14, 2-amino-2-methyl-N—((R)-1-oxo-1-((R)-3-oxo-3a-(pyridin-2-ylmethyl)-2-(2,2,2-trifluoroethyl)-3a,4,6,7-tetrahydro-2H-pyrazolo[4,3-c]pyridin-5(3H)-yl)-4-phenylbutan-2-yl) propanamide] yielded an EC50 in series [1] of less than 20 nM. In addition, in series [2], the CLint scaled at 1 microM came out at 51.5 mL/min/kg and the “Ratio of HLM CLint over comparison 1” value came out at 2.5.

(Values after patent US9901571B2, “Tetrahydropyrazolopyridine derivatives as ghrelin receptor agonists” (RaQualia Pharma Inc., priority 2014, dated 2018).)
